Laboratory results from the supplement of paper PMC13380429.

Assays:
Conditions in all cases: 72 h
U2OS [1] = experiment: cell viability relative to DMSO; higher = less toxic
Caco-2 [2] = experiment: as above
Vero E6 [3] = experiment: as above
HepG2 [4] = experiment: as above
Calu-3 [5] = experiment: as above
U2OS [6] = experiment: drug sensitivity score (DSS) for viability; higher = more toxic; extreme values may be limits of the assay
Caco-2 [7] = experiment: as above
Vero E6 [8] = experiment: as above
HepG2 [9] = experiment: as above
Calu-3 [10] = experiment: as above
U2OS [11] = experiment: relative viability EC50 (midpoint between 100% and the lowest measured viability); higher = less toxic
Caco-2 [12] = experiment: as above
Vero E6 [13] = experiment: as above
HepG2 [14] = experiment: as above
Calu-3 [15] = experiment: as above

| SMILES | cell viability (U2OS [1]; 1 nM) [%] | cell viability (U2OS [1]; 10 nM) [%] | cell viability (U2OS [1]; 100 nM) [%] | cell viability (U2OS [1]; 1000 nM) [%] | cell viability (U2OS [1]; 10000 nM) [%] | cell viability (Caco-2 [2]; 1 nM) [%] | cell viability (Caco-2 [2]; 10 nM) [%] | cell viability (Caco-2 [2]; 100 nM) [%] | cell viability (Caco-2 [2]; 1000 nM) [%] | cell viability (Caco-2 [2]; 10000 nM) [%] | cell viability (Vero E6 [3]; 1 nM) [%] | cell viability (Vero E6 [3]; 10 nM) [%] | cell viability (Vero E6 [3]; 100 nM) [%] | cell viability (Vero E6 [3]; 1000 nM) [%] | cell viability (Vero E6 [3]; 10000 nM) [%] | cell viability (HepG2 [4]; 1 nM) [%] | cell viability (HepG2 [4]; 10 nM) [%] | cell viability (HepG2 [4]; 100 nM) [%] | cell viability (HepG2 [4]; 1000 nM) [%] | cell viability (HepG2 [4]; 10000 nM) [%] | cell viability (Calu-3 [5]; 1 nM) [%] | cell viability (Calu-3 [5]; 10 nM) [%] | cell viability (Calu-3 [5]; 100 nM) [%] | cell viability (Calu-3 [5]; 1000 nM) [%] | cell viability (Calu-3 [5]; 10000 nM) [%] | drug sensitivity score (U2OS [6]) | drug sensitivity score (Caco-2 [7]) | drug sensitivity score (Vero E6 [8]) | drug sensitivity score (HepG2 [9]) | drug sensitivity score (Calu-3 [10]) | relative viability EC50 (U2OS [11]) [µM] | relative viability EC50 (Caco-2 [12]) [µM] | relative viability EC50 (Vero E6 [13]) [µM] | relative viability EC50 (HepG2 [14]) [µM] | relative viability EC50 (Calu-3 [15]) [µM] |
| --- | --- | --- | --- | --- | --- | --- | --- | --- | --- | --- | --- | --- | --- | --- | --- | --- | --- | --- | --- | --- | --- | --- | --- | --- | --- | --- | --- | --- | --- | --- | --- | --- | --- | --- | --- |
| CC(C)(C#N)c1cc(Cn2cncn2)cc(C(C)(C)C#N)c1 [anastrozole] | 92.7 | 98.3 | 96.3 | 104 | 113 | 89.4 | 101 | 92.9 | 96.9 | 95.8 | 94 | 99.2 | 97.7 | 99.3 | 107 | 89.5 | 94.3 | 96.1 | 97.5 | 96.4 | 97.1 | 98.7 | 93.8 | 116 | 103 | 0 | 0 | 0 | 0 | 0 | > 10 | > 10 | > 10 | > 10 | > 10 |
| CC(Cc1cccc(C(F)(F)F)c1)NCCOC(=O)c1ccccc1 (stereo not given) [benfluorex] | 98.8 | 102 | 105 | 96.8 | 100 | 103 | 95.9 | 103 | 107 | 97.6 | 101 | 107 | 94.2 | 100 | 96.3 | 86 | 96.6 | 97.8 | 99.4 | 88.4 | 97.8 | 94.5 | 100 | 96.4 | 104 | 0 | 0 | 0 | 0 | 0 | > 10 | > 10 | > 10 | > 10 | > 10 |
| CC(C)(C)c1ccc(S(=O)(=O)/C=C/C#N)cc1 [BAY-11-7085] | 101 | 99 | 102 | 89.1 | -0.4 | 101 | 82.2 | 83.6 | 91.8 | 37.8 | 92.7 | 95.9 | 91.8 | 90.3 | -0.3 | 96.7 | 100 | 98.7 | 85.2 | -0.4 | 105 | 103 | 96 | 97 | 49.8 | 7.4 | 4.8 | 7.1 | 8 | 3.1 | 2.26 | 2.1 | 2.35 | 2 | 2.69 |
| CCCCCCCCCCCC1=C(O)C(=O)C=C(O)C1=O [embelin] | 107 | 95.1 | 101 | 94.7 | 95.3 | 98.2 | 97.2 | 98.5 | 104 | 92.2 | 92.1 | 94.3 | 97.8 | 105 | 97 | 95.9 | 94.4 | 98.9 | 98.6 | 102 | 106 | 98.6 | 110 | 96.2 | 104 | 0 | 0 | 0 | 0 | 0 | > 10 | > 10 | > 10 | > 10 | > 10 |
